Reference: patent US20230002359A1, “PESTICIDALLY ACTIVE FUSED BICYCLIC HETEROAROMATIC COMPOUNDS” (priority 2019, published 2023)
Like-named read-outs stand apart in the source and are kept apart here.

Legend:
Assay type in all cases: in vivo
[1] = test system: Diabrotica Balteata (Corn Root Worm); assay: Example B1: Diabrotica balteata (corn root worm), maize sprouts sprayed, L2 larvae; conditions: 96 h, read-out: control in at least one of the two categories (mortality or growth inhibition)
Summary of the method: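 Larvae at L2 stage, 6 to 10 per well, feed on dried, spray-treated maize sprouts set on agar. Evaluation after 4 days compares mortality and growth inhibition with untreated samples.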

[2] = test system: Plutella xylostella (Diamond Back Moth); assay: Example B4: Plutella xylostella (diamond back moth), artificial diet, eggs, 24-well; conditions: 192 h, read-out: control in at least one of the two categories (mortality or growth inhibition)
Description: 24-well microtiter plates with artificial diet were treated with aqueous test solutions prepared from 10′000 ppm DMSO stock solutions by pipetting. After drying, Plutella eggs were pipetted through a plastic stencil onto a gel blotting paper and the plate was closed with it. The samples were assessed for mortality and growth inhibition in comparison to untreated samples 8 days after infestation.

[3] = test system: Spodoptera littoralis (Egyptian Cotton Leaf Worm); assay: Example B7: Spodoptera littoralis (Egyptian cotton leaf worm), cotton leaf discs sprayed, L1 larvae; conditions: foliar, 72 h, read-out: control in at least one of the three categories (mortality, anti-feedant effect, or growth inhibition)
Summary of the method: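 Read-out: mortality, feeding deterrence and growth inhibition, assessed 3 days after infestation relative to untreated samples. Sprayed, dried cotton leaf discs on agar each received five first-instar (L1) larvae; sprays were aqueous solutions prepared from 10′000 ppm DMSO stocks.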

[4] = test system: Chilo suppressalis (Striped Rice Stemborer); assay: Example B3: Chilo suppressalis (striped rice stemborer), artificial diet, L2 larvae; conditions: 144 h, read-out: control in at least one of the three categories (mortality, anti-feedant effect, or growth inhibition)
Summary of the method: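 Artificial diet treated with aqueous dilutions of DMSO stocks (10'000 ppm stock), dried, then infested with 6-8 L2 larvae per well. Mortality, anti-feeding and growth inhibition scored against untreated samples 6 days after infestation. Control counted when any category exceeds untreated.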

[5] = test system: Euschistus heros (Neotropical Brown Stink Bug); assay: Example B2: Euschistus heros (neotropical brown stink bug), soybean leaves sprayed, N2 nymphs; conditions: 120 h, read-out: control in at least one of the two categories (mortality or growth inhibition)
Description: Soybean leaves on agar in 24-well microtiter plates were sprayed with aqueous test solutions prepared from 10′000 ppm DMSO stock solutions. After drying the leaves were infested with N2 nymphs. The samples were assessed for mortality and growth inhibition in comparison to untreated samples 5 days after infestation.

[6] = test system: Myzus persicae (Green Peach Aphid); assay: Example B6: Myzus persicae (green peach aphid) intrinsic activity, sucrose solution; conditions: 120 h
Description: Test compounds prepared from 10′000 ppm DMSO stock solutions were applied by pipette into 24-well microtiter plates and mixed with sucrose solution. The plates were closed with a stretched Parafilm. A plastic stencil with 24 holes was placed onto the plate and infested pea seedlings were placed directly on the Parafilm. The infested plate was closed with a gel blotting paper and another plastic stencil and then turned upside down. The samples were assessed for mortality 5 days after infestation.

[7] = application rate of 200 ppm, 4 days after infestation, L2 larvae
[8] = application rate of 200 ppm, 8 days after infestation, eggs
[9] = application rate of 200 ppm, 3 days after infestation, L1 larvae
[10] = application rate of 200 ppm, 6 days after infestation, L2 larvae
[11] = application rate of 200 ppm, 5 days after infestation, N2 nymphs
[12] = test rate of 12 ppm, 5 days after infestation, intrinsic activity, read-out: mortality

CC(c1ncnn1-c1ccc(C#N)cn1)N(Cc1ccccc1)c1ncnc2c(C(F)(F)F)cc(C(F)(F)F)cc12 (stereo not drawn) [P.8, 6-[5-[1-[benzyl-[6,8-bis(trifluoromethyl)quina-zolin-4-yl]amino]ethyl]-1,2,4-triazol-1-yl]pyridine-3-carbonitrile]
≥ 80%: percent control (mortality or growth inhibition) at 200 ppm [1, 7] | percent control (mortality or growth inhibition) at 200 ppm [2, 8] | percent control (mortality, anti-feedant effect or growth inhibition) at 200 ppm [3, 9] | percent control (mortality, anti-feedant effect or growth inhibition) at 200 ppm [4, 10] | percent control (mortality or growth inhibition) at 200 ppm [5, 11]

CC(c1ncnn1-c1ccc(C#N)cn1)N(C(=O)OCc1ccccc1)c1ncnc2c(C(F)(F)F)cc(C(F)(F)F)cc12 (stereo not drawn) [P.10, benzyl N-[6,8-bis(trifluoromethyl)quina-zolin-4-yl]-N-[1-[2-(5-cyano-2-pyridyl)-1,2,4-triazol-3-yl]ethyl]carbamate]
≥ 80%: percent control (mortality or growth inhibition) at 200 ppm [1] | percent control (mortality or growth inhibition) at 200 ppm [2] | percent control (mortality, anti-feedant effect or growth inhibition) at 200 ppm [3] | mortality at 12 ppm [6] | percent control (mortality, anti-feedant effect or growth inhibition) at 200 ppm [4] | percent control (mortality or growth inhibition) at 200 ppm [5]

CC(Nc1ncnc2c(C(F)(F)F)cc(C(F)(F)F)cc12)c1ncnn1-c1ncccn1 (stereo not drawn) [P.16, N-[1-(2-pyrimidin-2-yl-1,2,4-triazol-3-yl)ethyl]-6,8-bis(trifluoromethyl)quinazolin-4-amine]
≥ 80%: percent control (mortality or growth inhibition) at 200 ppm [1, 7] | percent control (mortality or growth inhibition) at 200 ppm [2, 8] | percent control (mortality, anti-feedant effect or growth inhibition) at 200 ppm [3, 9] | mortality at 12 ppm [6, 12] | percent control (mortality, anti-feedant effect or growth inhibition) at 200 ppm [4, 10] | percent control (mortality or growth inhibition) at 200 ppm [5, 11]

CC(Nc1ncnc2c(Br)cc(C(F)(F)F)cc12)c1ncnn1-c1ncccn1 (stereo not drawn) [P.47, 8-bromo-N-[1-(2-pyrimidin-2-yl-1,2,4-triazol-3-yl)ethyl]-6-(trifluoromethyl)quinazolin-4-amine]
≥ 80%: percent control (mortality or growth inhibition) at 200 ppm [1, 7] | percent control (mortality or growth inhibition) at 200 ppm [2, 8] | percent control (mortality, anti-feedant effect or growth inhibition) at 200 ppm [3, 9] | percent control (mortality, anti-feedant effect or growth inhibition) at 200 ppm [4, 10] | percent control (mortality or growth inhibition) at 200 ppm [5, 11]

CC(c1ncnn1-c1ncccn1)N(C)c1ncnc2c(Br)cc(C(F)(F)F)cc12 (stereo not drawn) [P.71, 8-bromo-N-methyl-N-[1-(2-pyrimidin-2-yl-1,2,4-triazol-3-yl)ethyl]-6-(trifluoromethyl)quinazolin-4-amine]
≥ 80%: percent control (mortality or growth inhibition) at 200 ppm [1, 7] | percent control (mortality or growth inhibition) at 200 ppm [2, 8] | mortality at 12 ppm [6, 12] | percent control (mortality, anti-feedant effect or growth inhibition) at 200 ppm [4, 10] | percent control (mortality or growth inhibition) at 200 ppm [5, 11]

C[C@@H](c1ncnn1-c1ncccn1)N(C)c1ncnc2c(C(F)(F)F)cc(C(=O)C3CC3)cc12 [P.82, cyclopropyl-[4-[methyl-[(1S)-1-(2-pyrimidin-2-yl-1,2,4-triazol-3-yl)ethyl]amino]-8-(trifluoromethyl)quinazolin-6-yl]methanone]
≥ 80%: percent control (mortality or growth inhibition) at 200 ppm [1, 7] | percent control (mortality or growth inhibition) at 200 ppm [2, 8] | mortality at 12 ppm [6, 12] | percent control (mortality, anti-feedant effect or growth inhibition) at 200 ppm [4, 10] | percent control (mortality or growth inhibition) at 200 ppm [5, 11]

C[C@@H](c1ncnn1-c1ncccn1)N(C)c1ncnc2c(C(F)(F)F)cc(SC(F)(F)F)cc12 [P.84, N-methyl-N-[(1S)-1-(2-pyrimidin-2-yl-1,2,4-triazol-3-yl)ethyl]-8-(trifluoromethyl)-6-(trifluoromethylsulfanyl) quinazolin-4-amine]
≥ 80%: percent control (mortality or growth inhibition) at 200 ppm [1, 7] | percent control (mortality or growth inhibition) at 200 ppm [2, 8] | mortality at 12 ppm [6, 12] | percent control (mortality, anti-feedant effect or growth inhibition) at 200 ppm [4, 10] | percent control (mortality or growth inhibition) at 200 ppm [5, 11]

C[C@H](Nc1ncnc2c(C(F)(F)F)cc(I)cc12)c1ncnn1-c1ncccn1 [P.87, 6-iodo-N-[(1S)-1-(2-pyrimidin-2-yl-1,2,4-triazol-3-yl)ethyl]-8-(trifluoromethyl)quinazolin-4-amine]
≥ 80%: percent control (mortality or growth inhibition) at 200 ppm [1, 7] | percent control (mortality or growth inhibition) at 200 ppm [2, 8] | mortality at 12 ppm [6, 12] | percent control (mortality, anti-feedant effect or growth inhibition) at 200 ppm [4, 10] | percent control (mortality or growth inhibition) at 200 ppm [5, 11]

CC(c1nccnc1-c1ncccn1)N(C)c1ncnc2c(C(F)(F)F)cc(C(F)(F)F)cc12 (stereo not drawn) [P.107, N-methyl-N-[1-(3-pyrimidin-2-ylpyrazin-2-yl)ethyl]-6,8-bis(trifluoromethyl)quina-zolin-4-amine]
≥ 80%: percent control (mortality or growth inhibition) at 200 ppm [1, 7] | percent control (mortality or growth inhibition) at 200 ppm [2, 8] | percent control (mortality, anti-feedant effect or growth inhibition) at 200 ppm [3, 9] | percent control (mortality, anti-feedant effect or growth inhibition) at 200 ppm [4, 10] | percent control (mortality or growth inhibition) at 200 ppm [5, 11]

C[C@@H](c1ncnn1-c1ccc(C#N)cn1)N(C)c1ncnc2c(C(F)(F)C3CC3)cc(C(F)(F)F)cc12 [P.213, 6-[5-[(1S)-1-[[8-[cyclopropyl(difluoro)meth-yl]-6-(trifluoromethyl)quinazolin-4-yl]-methyl-amino]ethyl]-1,2,4-triazol-1-yl]pyridine-3-carbonitrile]
≥ 80%: percent control (mortality or growth inhibition) at 200 ppm [1, 7] | percent control (mortality or growth inhibition) at 200 ppm [2, 8] | percent control (mortality, anti-feedant effect or growth inhibition) at 200 ppm [3, 9] | percent control (mortality, anti-feedant effect or growth inhibition) at 200 ppm [4, 10] | percent control (mortality or growth inhibition) at 200 ppm [5, 11]

CC(c1ncnn1-c1ccc(C#N)cn1)N(C)c1ncnc2c(OC(F)(F)F)cc(Br)cc12 (stereo not drawn) [P.216, 6-[5-[1-[[6-bromo-8-(trifluoromethoxy)quinazo-lin-4-yl]-methyl-amino]ethyl]-1,2,4-triazol-1-yl]pyridine-3-carbonitrile]
≥ 80%: percent control (mortality or growth inhibition) at 200 ppm [1, 7] | percent control (mortality or growth inhibition) at 200 ppm [2, 8] | percent control (mortality, anti-feedant effect or growth inhibition) at 200 ppm [3, 9] | percent control (mortality, anti-feedant effect or growth inhibition) at 200 ppm [4, 10] | percent control (mortality or growth inhibition) at 200 ppm [5, 11]

CC(=O)N(c1ncnc2c(C(F)(F)F)cc(C(F)(F)F)cc12)C(C)c1ncnn1-c1ccc(C#N)cn1 (stereo not drawn) [P.259, N-[6,8-bis(trifluoromethyl)quina-zolin-4-yl]-N-[1-[2-(5-cyano-2-pyridyl)-1,2,4-triazol-3-yl]ethyl]acetamide]
≥ 80%: percent control (mortality or growth inhibition) at 200 ppm [1, 7] | percent control (mortality or growth inhibition) at 200 ppm [2, 8] | percent control (mortality, anti-feedant effect or growth inhibition) at 200 ppm [3, 9] | percent control (mortality, anti-feedant effect or growth inhibition) at 200 ppm [4, 10] | percent control (mortality or growth inhibition) at 200 ppm [5, 11]

C#CCN(c1ncnc2c(C(F)(F)F)cc(C(F)(F)F)cc12)C(C)c1ncnn1-c1ccc(C#N)cn1 (stereo not drawn) [P.261, 6-[5-[1-[[6,8-bis(trifluoromethyl)quina-zolin-4-yl]-prop-2-ynyl-amino]ethyl]-1,2,4-triazol-1-yl]pyridine-3-carbonitrile]
≥ 80%: percent control (mortality or growth inhibition) at 200 ppm [1, 7] | percent control (mortality or growth inhibition) at 200 ppm [2, 8] | percent control (mortality, anti-feedant effect or growth inhibition) at 200 ppm [3, 9] | percent control (mortality, anti-feedant effect or growth inhibition) at 200 ppm [4, 10] | percent control (mortality or growth inhibition) at 200 ppm [5, 11]

C[C@@H](c1ncnn1-c1ncccn1)N(C)c1ncnc2c(C(F)(F)F)cc(C(F)(F)C3CC3)cc12 [P.276, 6-[cyclopropyl(difluoro)meth-yl]-N-methyl-N-[(1S)-1-(2-pyrimidin-2-yl-1,2,4-triazol-3-yl)ethyl]-8-(trifluromethyl)quinazolin-4-amine]
≥ 80%: percent control (mortality or growth inhibition) at 200 ppm [1, 7] | percent control (mortality or growth inhibition) at 200 ppm [2, 8] | percent control (mortality, anti-feedant effect or growth inhibition) at 200 ppm [3, 9] | percent control (mortality, anti-feedant effect or growth inhibition) at 200 ppm [4, 10] | percent control (mortality or growth inhibition) at 200 ppm [5, 11]
